In this experiment the target is T1, B-cell CLL/lymphoma 9 protein (Homo sapiens, UniProt O00512).
T1 sequence (O00512 whole entry): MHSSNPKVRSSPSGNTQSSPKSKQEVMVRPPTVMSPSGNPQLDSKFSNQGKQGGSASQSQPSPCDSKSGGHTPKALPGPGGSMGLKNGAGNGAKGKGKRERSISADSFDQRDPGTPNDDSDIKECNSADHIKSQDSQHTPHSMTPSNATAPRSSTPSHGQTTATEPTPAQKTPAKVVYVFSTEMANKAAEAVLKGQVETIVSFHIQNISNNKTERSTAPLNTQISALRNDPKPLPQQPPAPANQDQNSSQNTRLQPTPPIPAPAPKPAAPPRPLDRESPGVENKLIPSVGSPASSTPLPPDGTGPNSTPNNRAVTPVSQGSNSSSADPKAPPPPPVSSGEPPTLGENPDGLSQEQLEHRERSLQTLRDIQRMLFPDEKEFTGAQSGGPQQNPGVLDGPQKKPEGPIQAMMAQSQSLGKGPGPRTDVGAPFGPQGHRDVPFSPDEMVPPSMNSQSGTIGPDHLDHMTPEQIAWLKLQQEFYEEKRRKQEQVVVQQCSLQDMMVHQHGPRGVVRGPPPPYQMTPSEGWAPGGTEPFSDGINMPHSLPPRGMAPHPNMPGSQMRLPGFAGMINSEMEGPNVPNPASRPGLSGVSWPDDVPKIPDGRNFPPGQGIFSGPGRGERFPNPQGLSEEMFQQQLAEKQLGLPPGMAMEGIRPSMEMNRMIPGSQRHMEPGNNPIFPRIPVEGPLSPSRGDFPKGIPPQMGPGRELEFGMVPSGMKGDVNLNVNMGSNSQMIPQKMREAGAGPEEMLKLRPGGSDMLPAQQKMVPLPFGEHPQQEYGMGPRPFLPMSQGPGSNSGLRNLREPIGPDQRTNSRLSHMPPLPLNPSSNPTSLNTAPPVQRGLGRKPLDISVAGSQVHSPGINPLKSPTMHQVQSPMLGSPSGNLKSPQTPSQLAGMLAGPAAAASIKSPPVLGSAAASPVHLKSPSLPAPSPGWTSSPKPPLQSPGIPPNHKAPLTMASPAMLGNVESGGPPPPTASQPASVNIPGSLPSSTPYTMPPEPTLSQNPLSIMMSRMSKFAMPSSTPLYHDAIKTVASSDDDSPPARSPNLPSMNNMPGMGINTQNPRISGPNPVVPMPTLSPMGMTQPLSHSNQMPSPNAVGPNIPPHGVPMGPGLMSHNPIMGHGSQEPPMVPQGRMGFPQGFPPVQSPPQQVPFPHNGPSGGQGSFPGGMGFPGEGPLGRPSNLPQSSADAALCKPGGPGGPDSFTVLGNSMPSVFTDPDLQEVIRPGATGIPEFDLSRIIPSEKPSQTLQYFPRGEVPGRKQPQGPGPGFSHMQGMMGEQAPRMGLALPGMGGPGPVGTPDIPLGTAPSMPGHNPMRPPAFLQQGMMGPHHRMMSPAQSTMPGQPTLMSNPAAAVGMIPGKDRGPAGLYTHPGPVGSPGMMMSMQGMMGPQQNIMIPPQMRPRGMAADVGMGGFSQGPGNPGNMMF
The experiment in a line: Competitive binding affinity to C-terminal 6-His-tagged beta-catenin (1 to 781 residues) (unknown origin) expressed in Escherichia coli BL21 (DE3)- N-terminal biotinylated human BCL9 (350 to 375 residues) assessed as apparent dissociation constant incubated for 2 hrs by AlphaScreen assay. (In general: Alpha assays give light when donor and acceptor beads are brought close together.)

For `CC(C)(Oc1cccc(N2CCC[C@@H](C(=O)N(CCOCCOCCNC(=O)CCCC[C@@H]3SC[C@@H]4NC(=O)N[C@@H]43)Cc3ccc(-c4cn[nH]c4)cc3)C2)c1)C(=O)N1CCNCC1`, the Kd was 770 nM.

The record behind these values is BindingDB's records for doi:10.1021/acs.jmedchem.1c00742 (H. Lee Moffitt Cancer Center and Research Institute, 2021).
